Patent US12172975B2, “1H-indazole carboxamides as receptor-interacting protein kinase 1 inhibitors (RIPK1)” (BRISTOL-MYERS SQUIBB COMPANY, priority 2018, dated 2024)
Counter-ions that a name gives are not always drawn. Like-named read-outs stand apart in the source and are kept apart here.

Test system: MLKL phosphorylation in HT29-L23 human colorectal adenocarcinoma cells
Test: MLKL Phosphorylation High-Content Assay
Format: cell-based
Settings: 6 h, necroptosis induced with TNFα, SMAC mimetic and Z-VAD, read-out: pMLKL (IC50)
Description: MLKL Phosphorylation High-Content Assay
HT29-L23 human colorectal adenocarcinoma cells were maintained in RPMI 1640 medium containing 10% heat-inactivated FBS, 1% Penicillin-Streptomycin and 10 mM HEPES. Cells were seeded at 2,000 cells/well in 384 well tissue culture-treated microplates (Greiner #781090-3B) and incubated at 37° C. (5% CO2/95% O2) for 2 d. […] (5% CO2/95% O2). Necroptopsis was induced using a mixture of human TNFα (35 ng/mL) (Peprotech #300-01A), SMAC mimetic (from US 2015/0322111 A1) (700 nM) and Z-VAD ([…]) (BD pharmingen #51-6936). Following 6 h incubation at 37° C. (5% CO2/95% O2), the cells were fixed with 4% formaldehyde (ACROS 11969-0010) for 15 min at rt, then permeabilized with phosphate buffered saline (PBS) containing 0.2% Triton-X-100 for 10 min. MLKL phosphorylation was detected using anti-MLKL (phospho S358) antibody (Abeam #ab 187091) (1:1000 dilution in Blocking Buffer [PBS supplemented with 0.1% BSA]) with ON incubation at 4° C. After washing three times in PBS, goat anti-rabbit Alexa-488 (1:1000 dilution) (Life Technologies, A11008) and Hoechst 33342 (Life Technologies, H3570) (1:2000 dilution) in Blocking Buffer were added for 1 h at rt.
Following another three cycles of washes in PBS, the microplates were sealed, and cellular images were acquired in the Cellomics ArrayScan VTI high-content imager equipped with an X1 camera. Fluorescent images were taken using a 10× objective and the 386-23 BGRFRN_BGRFRN and 485-20 BGRFRN_BGRFRN filter sets, for nuclei and MLKL phosphorylation, respectively. The image sets were analyzed using the Compartmental Analysis Bioapplication software (Cellomics). The level of MLKL phosphorylation was quantified as MEAN_CircRingAvglntenRatio. The maximal inhibitory response was defined by the activity induced by Neels (CAS #: 852391-15-2, 6.25 μM). […] The data were fitted using the 4-parameter logistic equation to calculate the IC50 and Ymax values.

Compound | IC50 (Homo sapiens) | IC50
CNC(=O)c1n[nH]c2cc(-c3cnc(OC)c(C(=O)N[C@H](C)CC(=O)OC(C)(C)C)c3)ccc12 [Example 141, tert-butyl (3R)-3-({2-methoxy-5-[3-(methylcarbamoyl)-1H-indazol-6-yl]pyridin-3-yl}-formamido)butanoate] | 41 nM | 
N-[(1,1,2,2,2-deutero)ethyl]-6-(5- {[(1R)-1-[2-fluoro-5-(trifluoro- methyl)phenyl]ethyl]carbamoyl}-6- (deutero)methoxypyridin-3-yl)-1H- indazole-3-carboxamide [Example 227] |  | 69 nM
CNC(=O)c1n[nH]c2cc(-c3cc(C(=O)NCc4cc(OC(F)(F)F)ccc4F)c(OC)nc3C)ccc12 [Example 161, 6-[5-({[2-fluoro-5-(tri-fluoromethoxy)phenyl]-methyl}carbamoyl)-6-methoxy-2-methylpyridin-3-yl]-N-methyl-1H-indazole-3-carboxamide] | 74 nM | 
CNC(=O)c1n[nH]c2cc(-c3cnc(OC)c(C(=O)NCCCC(=O)N(CC4CC4)C4CC4)c3)ccc12 [Example 142, 6-[5-({3-[cyclopropyl(cyclo-propylmethyl)carbamoyl]-propyl}carbamoyl)-6-meth-oxypyridin-3-yl]-N-methyl-1H-indazole-3-carboxamide] | 120 nM | 
[2H]C([2H])([2H])Oc1ncc(-c2ccc3c(C(=O)NC)n[nH]c3c2)cc1C(=O)N[C@@H](C)c1cccc(OC(F)(F)F)c1 [Example 25] | 190 nM | 
[2H]C([2H])([2H])NC(=O)c1n[nH]c2cc(-c3cnc(OC([2H])([2H])[2H])c(C(=O)N[C@@H](C)c4cccc(OC(F)(F)F)c4)c3)ccc12 [Example 220, 6-[6-(deutero)methoxy-5-{[(1S)-1-[3-(trifluoromethoxy)phenyl]ethyl]-carbamoyl}pyridin-3-yl]-N-(deutero)-methyl-1H-indazole-3-carboxamide] | 100 nM | 
CNC(=O)c1n[nH]c2cc(-c3cnc(OC)c(C(=O)NCCCC(=O)OC(C)(C)C)c3)ccc12 [Example 135, tert-butyl 4-({2-methoxy-5-[3-(methylcarbamoyl)-1H-indazol-6-yl]pyridin-3-yl}formamido)-butanoate] | 200 nM | 
CNC(=O)c1n[nH]c2cc(-c3cnc(OC)c(C(=O)NCCCOC(C)(C)C)c3)ccc12 [Example 60, 6-(5-{[3-(tert-butoxy)propyl]-carbamoyl}-6-methoxypyridin-3-yl)-N-methyl-1H-indazole-3-carboxamide] | 16 nM | 
[2H]C([2H])([2H])Oc1ncc(-c2ccc3c(C(=O)NC4CC4)n[nH]c3c2)cc1C(=O)NC(C)c1cccc(OC(F)(F)F)c1 (stereo not shown) [Example 197, N-cyclopropyl-6-[6-(deutero)-methoxy-5-({1-[3-(trifluorometh-oxy)phenyl]ethyl}carbamoyl)-pyridin-3-yl]-1H-indazole-3-carboxamide] | 52 nM | 
[2H]C([2H])([2H])NC(=O)c1n[nH]c2cc(-c3cnc(OC([2H])([2H])[2H])c(C(=O)N[C@H](C)c4cc(OC(F)(F)F)ccc4F)c3)ccc12 [Example 218, 6-(5-{[(1R)-1-[2-fluoro-5-(trifluoro-methoxy)phenyl]ethyl]carbamoyl}-6-(deutero)methoxypyridin-3-yl)-N-(deutero)methyl-1H-indazole-3-carboxamide] | 32 nM | 
COc1ncc(-c2ccc3c(C(=O)NC(C)C)n[nH]c3c2)cc1C(=O)NCc1ccccc1OC(F)(F)F [Example 179, 6-[6-methoxy-5-({[2-(trifluoro-methoxy)phenyl]methyl}carbam-oyl)pyridin-3-yl]-N-(propan-2-yl)-1H-indazole-3-carboxamide] | 73 nM | 
[2H]C([2H])([2H])Oc1ncc(-c2ccc3c(C(=O)NC)n[nH]c3c2)cc1C(=O)N[C@@H](c1cccc(OC(F)(F)F)c1)C([2H])([2H])[2H] [Example 11, (R)-6-(6-(methoxy-d3)-5-((1-(3-(trifluoromethoxy)phenyl)ethyl-2,2,2-d3)carbamoyl)pyridin-3-yl)-N-methyl-1H-indazole-3-carboxamide, TFA] | 223 nM | 
[2H]C([2H])([2H])Oc1ncc(-c2ccc3c(C(=O)NC)n[nH]c3c2)cc1C(=O)N[C@H](c1cc(OC(F)(F)F)ccc1F)C([2H])([2H])[2H] [Example 10, (S)-6-(5-((1-(2-fluoro-5-(trifluoromethoxy)phenyl)ethyl-2,2,2-d3)carbamoyl)-6-(methoxy-d3)pyridin-3-yl)-N-methyl-1H-indazole-3-carboxamide] | 6.4 nM | 
CNC(=O)c1n[nH]c2cc(-c3cnc(OC)c(C(=O)N[C@H]4C[C@@H]4c4ccccc4)c3)ccc12 [Example 46, 6-(6-methoxy-5-{[(1S,2R)-2-phenylcyclopropyl]carbamoyl}-pyridin-3-yl)-N-methyl-1H-indazole-3-carboxamide] | 4.4 nM | 
CNC(=O)c1n[nH]c2cc(-c3cnc(OC)c(C(=O)NCc4ccccc4N4CCC(CO)CC4)c3)ccc12 [Example 57, 6-{5-[({2-[4-(hydroxymethyl)-piperidin-1-yl]phenyl}methyl)-carbamoyl]-6-methoxypyridin-3-yl}-N-methyl-1H-indazole-3-carboxamide] | 110 nM | 
[2H]C([2H])([2H])NC(=O)c1n[nH]c2cc(-c3cnc(OC([2H])([2H])[2H])c(C(=O)N[C@H](C)c4ccccc4C(F)(F)F)c3)ccc12 [Example 219, 6-[6-(deutero)methoxy-5-{[(1R)-1-[2-(trifluoromethyl)phenyl]ethyl]-carbamoyl}pyridin-3-yl]-N-(deutero)-methyl-1H-indazole-3-carboxamide] | 18 nM | 
[2H]C([2H])([2H])Oc1ncc(-c2ccc3c(C(=O)NC4CC4)n[nH]c3c2)cc1C(=O)N[C@@H](C)c1cccc(C(F)(F)F)c1 [Example 211, N-cyclopropyl-6-[6-(deutero)-methoxy-5-{[(1S)-1-[3-(trifluoro-methyl)phenyl]ethyl]carbamoyl}-pyridin-3-yl]-1H-indazole-3-carboxamide] | 27 nM | 
CNC(=O)c1n[nH]c2cc(-c3cnc(OC)c(C(=O)N[C@H](C)c4cc(OC(F)(F)F)ccc4F)c3)ccc12 [Example 216, 6-(5-{[(1R)-1-[2-fluoro-5-(trifluoro-methoxy)phenyl](2,2,2-deutero)-ethyl]carbamoyl}-6-(deutero)meth-oxypyridin-3-yl)-N-(deutero)methyl-1H-indazole-3-carboxamide] |  | 30 nM
CNC(=O)c1n[nH]c2cc(-c3cnc(OC)c(C(=O)N[C@H]4CC[C@@H](c5ccccc5)C4)c3)ccc12 [Example 67, 6-(6-methoxy-5-{[(1S,3R)-3-phenylcyclopentyl]carbamoyl}-pyridin-3-yl)-N-methyl-1H-indazole-3-carboxamide] | 39 nM | 
CNC(=O)c1n[nH]c2cc(-c3cnc(OC)c(C(=O)NCCC(O)c4ccc(OC)cc4)c3)ccc12 (stereo not shown) [Example 38, 6-(5-{[3-hydroxy-3-(4-methoxy-phenyl)propyl]carbamoyl}-6-methoxypyridin-3-yl)-N-methyl-1H-indazole-3-carboxamide] | 13 nM | 
[2H]C([2H])([2H])Oc1ncc(-c2ccc3c(C(=O)NC)n[nH]c3c2)cc1C(=O)N[C@H](C)c1cccc(OC(F)(F)F)c1 [Example 14, (R)-6-(6-methoxyd3-5-((1-(3-(trifluoromethoxy)phenyl)ethyl)carbamoyl)pyridin-3-yl)-N-methyl-1H-indazole-3-carboxamide] | 37 nM | 
[2H]C([2H])([2H])Oc1ncc(-c2ccc3c(C(=O)NC)n[nH]c3c2)cc1C(=O)N[C@H](C)c1ccccc1C(F)(F)F [Example 33, 6-[6-(deutero)methoxy-5-{[(1R)-1-[2-(trifluoromethyl)phenyl]-ethyl]carbamoyl}pyridin-3-yl]-N-methyl-1H-indazole-3-carbox-amide] | 25 nM | 
CNC(=O)c1n[nH]c2cc(-c3cnc(OC)c(C(=O)N[C@@H](C)CC(=O)OC(C)(C)C)c3)ccc12 [Example 139, tert-butyl (3S)-3-({2-methoxy-5-[3-(methylcarbamoyl)-1H-indazol-6-yl]pyridin-3-yl}-formamido)butanoate] | 28 nM | 
[2H]C([2H])([2H])Oc1ncc(-c2ccc3c(C(=O)NC)n[nH]c3c2)cc1C(=O)N[C@@H](C)c1cc(C(F)(F)F)ccc1F [Example 32, 6-(5-{[(1S)-1-[2-fluoro-5-(trifluoromethyl)phenyl]ethyl]-carbamoyl}-6-(deutero)meth-oxypyridin-3-yl)-N-methyl-1H-indazole-3-carboxamide] | 19 nM | 
[2H]C([2H])([2H])NC(=O)c1n[nH]c2cc(-c3cnc(OC([2H])([2H])[2H])c(C(=O)N[C@@H](C)c4cc(OC(F)(F)F)ccc4F)c3)ccc12 [Example 5, (S)-6-(5-((1-(2-fluoro-5-(trifluoromethoxy)phenyl)ethyl)carbamoyl)-6-(methoxy-d3)pyridin-3-yl)-N-(methyl-d3)-1H-indazole-3-carboxamide] | 9 nM | 
